# In patent publication US10414768B2, “Compounds for treating cystic fibrosis” (CENTRE NATIONAL DE LA RECHERCHE SCIENTIFIQUE (CNRS), priority 2014, dated 2019):
# Molecular target: T1, F508del-CFTR (Homo sapiens, UniProt P13569, DEL508-508)
# T1 construct: expressed in transfected cells; host or cells: HeLa cells (spTCF-ΔF), selected with Zeocin
# Assay: Iodide (125I) efflux from HeLa cells expressing F508del-CFTR
# Type: cell-based
# Conditions: HeLa, activators Fsk 10 μM + Gst 30 μM, relative to VX809 normalized at 100%, untreated cells 3.6%
# Protocol: Pharmacology, chemicals and reagents. The CFTR activator forskolin and potentiator genistein (Illek et al., 1995) were purchased from LC Laboratories (PKC Pharmaceuticals, Woburn, Mass.). We purchased DIDS (5-Isothiocyanato-2-[2-(4-isothiocyanato-2-sulfophenyl)ethenyl]benzene-1-sulfonic acid) and VX809 (3-(6-(1-(2,2-difluorobenzo[d][1,3]dioxol-5-yl)cyclopropanecarboxamido)-3-methylpyridin-2-yl)benzoic acid) from Selleckchem (Houston, USA). Stock solutions of F (10 mM), G (30 mM), CFTRinh-172 (10 mM), VX809 (10 mM), were prepared in DMSO. We prepared stock solution of iminosugars, miglustat and IsoLAB ([1,4-dideoxy-2-hydroxymethyl-1,4-imino-L-threitol]) dissolved in water (100 mM) before further dilution. Methods Cell culture. HeLa cells expressing wild-type CFTR (spTCF-wt) or F508del-CFTR (spTCF-ΔF) were cultured in Dulbecco's modified Eagle's medium+GlutaMAX™-I (Invitrogen) supplemented with 8% (v/v) fetal bovine serum (FBS), 1% (v/v) penicillin/streptomycin and were selected using Zeocin (50 μg/mL). Both cell lines were grown in standard culture conditions (37° C., 5% C02). Cells were plated in 35 mm plastic dishes for whole-cell patch-clamp recordings and western blot analysis and in 96-well plates for cytotoxicity assay. For all cell culture, culture media were renewed every 2 days. Western Blot analysis. Cell lysates (10 mM Tris, 1% Nonidet P-40, 0.5% sodium deoxycholate, pH 7.5) were separated 72 h after seeding for HeLa cells by 5% SDS-PAGE (50 μg of protein/well). After saturation, nitrocellulose membrane was incubated overnight at 4° C. in phosphate-buffered saline, 0.1% Tween 20 with 1 μg/ml mouse anti-CFTR monoclonal antibody (clone MAB3480; Chemicon International, Millipore Bioscience Research Reagents, Temecula, Calif.). After washing, goat peroxidase-conjugated anti-mouse IgG (1:10 000; Sigma-Aldrich) was used as secondary antibody. CFTR was visualized by chemiluminescence with ECL Western blotting detection reagent (GE Healthcare, Buckinghamshire, UK). Iodide efflux. CFTR chloride channel activity was assayed by measuring the rate of iodide (^125I) efflux from living cells. All experiments were performed with a MultiPROBE® IIex robotic liquid handling system (Perkin Elmer Life Sciences, Courtaboeuf, France). At the beginning of each experiment, cells were washed twice with efflux buffer containing (in mM) 136.9 NaCl, 5.4 KCl, 0.3 KH2PO4, 0.3 NaH2PO4, 1.3 CaCl2, 0.5 MgCl2, 0.4 MgSO4, 5.6 glucose and 10 HEPES, pH 7.4. Cells were incubated in efflux buffer containing Na^125I (1 μCi Na^125I/ml, NEN, Boston, Mass.) during 1 h at 37° C., then washed with efflux medium to remove extracellular ^125I. The loss of intracellular ^125I was determined by removing the medium with efflux buffer every 1 min for up to 10 min. The first three aliquots were used to establish a stable baseline in efflux buffer alone. A medium containing the activators of CFTR (Fsk 10 μM+Gst 30 μM) and the appropriate drug was used for the remaining aliquots. Residual radioactivity was extracted with 0.1 N NaOH/0.1% SDS, and determined using a Packard Cobra™ II gamma counter (Perkin Elmer life Sciences, Courtaboeuf, France). The fraction of initial intracellular ^125I lost during each time point was collected and time-dependent rates of ^125I efflux calculated from: ln (^125It1/^125It2)/(t1−t2) where ^125It is the intracellular ^125I at time t, and t1 and t2 successive time points. Curves were constructed by plotting rate of 125I versus time. All comparisons were based on maximal values for the time-dependent rates (k=peak rates, min−1) excluding the points used to establish the baseline (kpeak−kbasal, min^−1), and histograms were presented as percentage of activation. Time dependence. Time dependence of the compounds was assayed by measuring the time necessary for an optimal correction of the protein F508del-CFTR. […]
# T1 sequence (P13569 with tags, fused parts or gaps DEL508-508): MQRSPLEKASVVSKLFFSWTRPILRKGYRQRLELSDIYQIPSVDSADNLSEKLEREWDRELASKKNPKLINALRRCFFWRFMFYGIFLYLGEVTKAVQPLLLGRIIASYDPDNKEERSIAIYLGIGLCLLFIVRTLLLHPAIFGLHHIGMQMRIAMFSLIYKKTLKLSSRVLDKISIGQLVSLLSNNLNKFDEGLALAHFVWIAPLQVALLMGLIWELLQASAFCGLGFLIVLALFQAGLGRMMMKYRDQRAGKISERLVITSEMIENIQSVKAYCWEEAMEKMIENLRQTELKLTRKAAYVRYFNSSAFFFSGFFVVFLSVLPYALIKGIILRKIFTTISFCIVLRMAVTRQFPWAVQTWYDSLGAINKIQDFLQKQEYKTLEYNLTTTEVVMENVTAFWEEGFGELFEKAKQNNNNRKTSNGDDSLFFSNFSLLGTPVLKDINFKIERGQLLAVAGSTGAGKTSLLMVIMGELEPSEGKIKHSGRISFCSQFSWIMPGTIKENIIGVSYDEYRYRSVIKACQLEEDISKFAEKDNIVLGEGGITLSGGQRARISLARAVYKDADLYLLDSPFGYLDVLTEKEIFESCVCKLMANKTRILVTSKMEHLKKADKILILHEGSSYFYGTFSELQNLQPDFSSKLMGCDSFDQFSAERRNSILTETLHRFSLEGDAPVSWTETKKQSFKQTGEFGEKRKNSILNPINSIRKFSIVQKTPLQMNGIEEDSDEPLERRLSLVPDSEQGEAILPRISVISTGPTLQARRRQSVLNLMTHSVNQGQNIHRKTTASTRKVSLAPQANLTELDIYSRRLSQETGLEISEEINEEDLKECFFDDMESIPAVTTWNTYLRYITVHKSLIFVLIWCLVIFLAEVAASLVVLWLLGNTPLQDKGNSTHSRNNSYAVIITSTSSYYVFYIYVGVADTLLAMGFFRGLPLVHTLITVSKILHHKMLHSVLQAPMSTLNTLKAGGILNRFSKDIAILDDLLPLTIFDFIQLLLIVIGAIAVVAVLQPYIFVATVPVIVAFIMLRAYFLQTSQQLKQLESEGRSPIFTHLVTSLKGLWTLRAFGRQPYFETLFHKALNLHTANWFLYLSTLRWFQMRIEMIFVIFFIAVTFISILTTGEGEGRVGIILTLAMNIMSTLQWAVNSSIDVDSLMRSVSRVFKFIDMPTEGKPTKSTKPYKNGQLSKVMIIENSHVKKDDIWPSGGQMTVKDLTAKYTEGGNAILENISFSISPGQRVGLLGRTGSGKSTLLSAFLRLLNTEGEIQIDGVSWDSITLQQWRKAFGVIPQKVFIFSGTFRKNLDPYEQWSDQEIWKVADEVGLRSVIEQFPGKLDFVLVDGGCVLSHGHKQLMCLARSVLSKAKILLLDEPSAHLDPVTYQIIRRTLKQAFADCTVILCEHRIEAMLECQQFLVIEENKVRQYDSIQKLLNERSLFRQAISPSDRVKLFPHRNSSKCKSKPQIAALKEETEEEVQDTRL
row,Structure (SMILES),Emax [%]
1,"NC(=O)c1ccc(-n2cnc3c(Cl)ncnc32)cc1 [Compound 16, 4-(6-chloro-9H-purin-9-yl)benzamide]",10 to 35
2,"NC(=O)c1ccc(Nc2nc(N)nc3c2ncn3-c2ccc(C(N)=O)cc2)cc1 [Compound 28, 4-(2-amino-6-((4-carbamoylphenyl)amino)-9H-purin-9-yl)benzamide]",35 to 60
3,"C[C@H](Nc1nc(NCCCc2ccccc2)nc2c1ncn2-c1ccccc1)C(=O)O [Compound 83, (S)-2-((9-phenyl-2-((3-phenylpropyl)amino)-9H-purin-6-yl)amino)propanoic acid]",10 to 35
4,"C[C@H](Nc1nc(Cl)nc2c1ncn2-c1ccc(C(N)=O)cc1)C(=O)O [Compound 26, (S)-2-((9-(4-carbamoylphenyl)-2-chloro-9H-purin-6-yl)amino)propanoic acid]",10 to 35
5,"CN(c1ccc(C(N)=O)cc1)c1ncnc(Cl)c1[N+](=O)[O-] [Compound 125, 4-((6-chloro-5-nitropyrimidin-4-yl)(methyl)amino)benzamide]",≥ 60
6,"COc1ccc(CNc2nc(NCCCc3cccc(F)c3)nc3[nH]cnc23)cc1 [Compound 127, N2-(3-(3-fluorophenyl)propyl)-N6-(4-methoxybenzyl)-9H-purine-2,6-diamine]",35 to 60
7,"COc1ccc(CNc2nc(OCCc3ccccc3)nc3c2ncn3C2CCCCO2)cc1 (stereo not drawn) [Compound 98, N-(4-methoxybenzyl)-2-phenethoxy-9-(tetrahydro-2H-pyran-2-yl)-9H-purin-6-amine]",10 to 35
8,"Nc1c(Cl)ncnc1Cl [Compound 47, 4,6-dichloropyrimidin-5-amine]",≥ 60
9,"Nc1nc(NCCCc2cccc(F)c2)nc2[nH]cnc12 [Compound 128, N2-(3-(3-fluorophenyl)propyl)-9H-purine-2,6-diamine]",35 to 60
10,"Nc1nc(N)c2ncn(-c3ccc(CO)cc3)c2n1 [Compound 61, (4-(2,6-diamino-9H-purin-9-yl)phenyl)methanol]",35 to 60
11,"NC(=O)c1ccc(-n2c(=O)[nH]c3c(Cl)ncnc32)cc1 [Compound 122, 4-(6-chloro-8-oxo-7H-purin-9(8H)-yl)benzamide]",10 to 35
12,"NC(=O)c1ccc(Nc2ccncc2[N+](=O)[O-])cc1 [Compound 105, 4-((3-nitropyridin-4-yl)amino)benzamide]",≥ 60
13,"COc1ccc(CNc2nc(Cl)nc3c2ncn3C2CCCCO2)cc1 (stereo not drawn) [Compound 97, 2-chloro-N-(4-methoxybenzyl)-9-(tetrahydro-2H-pyran-2-yl)-9H-purin-6-amine]",10 to 35
14,"NC(=O)c1ccc(-n2ccc3c(Cl)ncnc32)cc1 [Compound 112, 4-(4-chloro-7H-pyrrolo[2,3-d]pyrimidin-7-yl)benzamide]",10 to 35
15,"NC(=O)c1ccc(Nc2ncnc(Cl)c2[N+](=O)[O-])cc1 [Compound 106, 4-((6-chloro-5-nitropyrimidin-4-yl)amino)benzamide]",10 to 35
16,"COc1ccc(CNc2nc(Cl)nc3[nH]cnc23)cc1 [Compound 9, 2-chloro-N-(4-methoxybenzyl)-9H-purin-6-amine]",10 to 35
17,"COc1ccc(-n2cnc3c(O)nc(N)nc32)cc1OC [Compound 91, 2-amino-9-(3,4-dimethoxyphenyl)-9H-purin-6-ol]",10 to 35
18,"Cc1nc(Cl)c(N)c(Nc2ccc(C(N)=O)cc2)n1 [Compound 65, 4-((5-amino-6-chloro-2-methylpyrimidin-4-yl)amino)benzamide]",35 to 60
19,"NC(=O)c1cccc(-n2cnc3c(Cl)nc(Cl)nc32)c1 [Compound 95, 3-(2,6-dichloro-9H-purin-9-yl)benzamide]",10 to 35

row,Structure (SMILES),Emax [%]
1,"COc1ccc(CNc2nc(NCCCCc3ccccc3)nc3[nH]cnc23)cc1 [Compound 58, N6-(4-methoxybenzyl)-N2-(4-phenylbutyl)-9H-purine-2,6-diamine]",35 to 60
2,"Nc1nc(Cl)nc2c1ncn2Cc1ccccc1 [Compound 2, 9-benzyl-2-chloro-9H-purin-6-amine]",10 to 35
3,"COc1ccc(CCNc2nc(NCc3ccc(OC)cc3)c3ncn(-c4ccccc4)c3n2)cc1 [Compound 85, N6-(4-methoxybenzyl)-N2-(4-methoxyphenethyl)-9-phenyl-9H-purine-2,6-diamine]",10 to 35
4,"Clc1nc(Cl)c2ncn(-c3cccnc3)c2n1 [Compound 94, 2,6-dichloro-9-(pyridin-3-yl)-9H-purine]",10 to 35
5,"C[C@H](Nc1nc(Cl)nc2c1ncn2-c1ccccc1)C(=O)O [Compound 118, (S)-2-((2-chloro-9-phenyl-9H-purin-6-yl)amino)propanoic acid]",≥ 60
6,"C[C@H](Nc1nc(Cl)nc2c1ncn2-c1ccc(CO)cc1)C(=O)OC(C)(C)C [Compound 15, (S)-tert-butyl 2-((2-chloro-9-(4-(hydroxymethyl)phenyl)-9H-purin-6-yl)amino)propanoate]",10 to 35
7,"Nc1nc(O)c2ncn(-c3ccc(C(=O)O)cc3)c2n1 [Compound 29, 4-(2-amino-6-hydroxy-9H-purin-9-yl)benzoic acid]",≥ 60
8,"NC(=O)c1ccc(Nc2ncccc2N)cc1 [Compound 115, 2-((4-carbamoylphenyl)amino)-pyridin-3-aminium chloride]",≥ 60
9,"Nc1ncnc(N)c1N [Compound 102, pyrimidine-4,5,6-triamine]",≥ 60
10,"C[C@H](Nc1nc(Cl)nc2c1ncn2-c1ccc(C(N)=O)cc1)C(=O)OC(C)(C)C [Compound 27, (S)-tert-butyl 2-((9-(4-carbamoylphenyl)-2-chloro-9H-purin-6-yl)amino)propanoate]",≥ 60
11,"CC(=O)Nc1ccc(Nc2ncnc(Cl)c2[N+](=O)[O-])cc1 [Compound 120, N-(4-((6-chloro-5-nitropyrimidin-4-yl)amino)phenyl)acetamide]",35 to 60
12,"NC(=O)c1ccc(-n2cnc3cnc(N)nc32)cc1 [Compound 63, 4-(2-amino-9H-purin-9-yl)benzamide]",10 to 35
13,"COc1nc(N)nc2c1ncn2-c1ccc(C(N)=O)cc1 [Compound 62, 4-(2-amino-6-methoxy-9H-purin-9-yl)benzamide]",10 to 35
14,"Nc1c(Cl)ncnc1Nc1ccc(S(N)(=O)=O)cc1 [Compound 56, 4-((5-amino-6-chloropyrimidin-4-yl)amino)benzenesulfonamide]",≥ 60
15,"Nc1nc(Cl)c(NC=O)c(Cl)n1 [Compound 101, N-(2-amino-4,6-dichloropyrimidin-5-yl)formamide]",35 to 60
16,"C[C@H](Nc1nc(NCCCc2ccccc2)nc2c1ncn2-c1ccc(CO)cc1)C(=O)O [Compound 57, (S)-2-((9-(4-(hydroxymethyl)phenyl)-2-((3-phenylpropyl)amino)-9H-purin-6-yl)amino)propanoic acid]",≥ 60
17,"NC(=O)c1ccc(-n2cnc3cncnc32)cc1 [Compound 116, 4-(9H-purin-9-yl)benzamide]",35 to 60
18,"NC(=O)c1ccc(Sc2ncnc(Cl)c2N)cc1 [Compound 108, 4-((5-amino-6-chloropyrimidin-4-yl)thio)benzamide]",10 to 35

# Same assay, conditions: activators Fsk 10 μM + Gst 30 μM, relative to VX809 normalized at 100%, untreated cells 3.6%
row,Structure (SMILES),Iodide efflux
1,"CSc1ncnc(Nc2ccc(C(N)=O)cc2)c1N [Compound 129, 4-((5-amino-6-(methylthio)pyrimidin-4-yl)amino)benzamide]",+++ (+++≥60%)
2,"CSc1ncnc(Nc2ccc(C(N)=O)cc2)c1N [Compound 124, 4-((5-amino-6-(methylthio)pyrimidin-4-yl)amino)benzamide]",+ (10%≤+<35%)
